Experimental data: US20060264411A1, “Control of biofilm formation” (priority 2005, published 2006)

Assays:
[1] = system: E. coli laboratory strain JM109; test: Biofilm formation inhibition, crystal violet, E. coli laboratory strain JM109; type: cell-based; settings: Escherichia coli, read-out: inhibited biofilm formation as compared to the controls
Procedure: Biofilm inhibition experiments were conducted using an assay adapted from the reported protocol described in Pratt and Kolter, 1998, Molecular Microbiology, 30: 285-293; Li et al., 2001, J. Bacteriol., 183: 897-908. E. coli clinical strain UTI89 was grown in LB in 96 well plates at room temperature for one or two days without shaking. E. coli laboratory strain JM109 was grown in LB plus 0.2% glucose in 96 well plates at room temperature for one day without shaking. To quantify the biofilm mass, the suspension culture was poured out and the biofilm was washed three times with water. The biofilm was stained with 0.1% crystal violet for 20 minutes. The plates were then washed three times with water. OD reading at 540 nm was measured to quantify the biofilm mass at the bottom of the wells. Then 95% ethanol was added to dissolve the dye at the bottom and on the wall and the OD reading at 540 nm was measured to quantify the total biofilm mass. To study the overall effect of the compounds (3.6 mg/mL in 100% ethanol as stock solution), it was added with the inoculation and a time course of biofilm mass was measured. Appropriate amounts of 100% ethanol were added to each sample to eliminate the effect of solvent. Each condition had 3-4 replicates on each plate and was performed over multiple days.

[2] = system: P. aeruginosa strain PAO1; test: Rotating disk reactor (RDR) biofilm test with and without tobramycin; type: cell-based, Pseudomonas aeruginosa; settings: for Test Compound, log10 CFU: no tobramycin; for Tobramycin and Test Compound, log10 CFU: then tobramycin 100 μg/ml 2 h
Procedure: Biofilm formation of P. aeruginosa was evaluated using a standardized biofilm method with a rotating disk reactor (RDR). This method provides a model resembling the formation of biofilms in cystic fibrosis patients. The rotating disk reactor consists of a one-liter glass beaker fitted with a drain spout. The bottom of the vessel contains a magnetically driven rotor with six 1.27 cm diameter coupons constructed from polystyrene. The rotor consists of a star-head magnetic stir bar upon which a disk was affixed to hold the coupons. The vessel with the stir bar was placed on a stir plate and rotated to provide fluid shear. A nutrient solution (AB Trace Medium with 0.3 mM glucose, see Table 1 below for composition) was added through a stopper in the top of the reactor at a flow rate of 5 ml/min. The reactor volume was approximately 180 ml and varied slightly between reactors depending on the placement of the drain spout and the rotational speed of the rotor. At a volume of 180 ml, the residence time of the reactors was 36 minutes. The reactors were operated at room temperature (c.a. 26° C.).
For each test, two RDRs were operated in parallel with one receiving test compound and the other serving as an untreated control. The RDRs were sterilized by autoclave, then filled with sterile medium and inoculated with P. aeruginosa strain PAO1. The reactors were then incubated at room temperature in batch mode (no medium flow) for a period of 24 hours, after which the flow was initiated for a further 24 hour incubation. Test compounds were dissolved in 10 ml ethanol to achieve a concentration of 1.8 mg/ml. After the 48 hours of biofilm development described above, the 10 ml of ethanol containing the test compounds were added to the reactor to achieve a final concentration of approximately 50, 100, or 200 μg/ml. Control reactors received 10 ml of ethanol. The reactors were then incubated for an additional 24 hours in batch (no flow) mode. After this incubation period, the six coupons were removed from each reactor and placed in 12-well polystyrene tissue culture plates with wells containing either 2 ml of a 100 μg/ml tobramycin solution or 2 ml of phosphate-buffered saline (PBS). These plates were incubated at room temperature for two hours. The coupons were then rinsed by three transfers to plates containing 2 ml of fresh PBS. For each two RDR reactors run in parallel, four sets of three coupons were obtained: one set with no test compound treatment and no tobramycin treatment, one set with no test compound treatment and tobramycin treatment, one set treated with a test compound treatment and no tobramycin treatment, and one set treated with a test compound treatment and tobramycin. After rinsing, one coupon of each set of three was stained with a LIVE/DEAD® BacLight™ Bacterial Viability Kit (Molecular Probes, Eugene Oreg.) and imaged using epifluorescent microscopy. The remaining two coupons were placed in 10 ml of PBS and sonicated for five minutes to remove and disperse biofilm cells. The resulting bacterial suspensions were then serially diluted in PBS and plated on tryptic soy agar plates for enumeration of culturable bacteria. The plates were incubated for 24 hours at 37° C. before colony forming units (CFU) were determined.
The results are averages from experiments performed on three separate days for each test compound. The values reported are as log10 CFU.

S. mutans 25175 = test: Biofilm growth inhibition in polycarbonate tubes; type: cell-based; settings: Streptococcus mutans, 40 μg/mL
E. coli UTI89[pCOMGFP] = test: Biofilm pods / intracellular bacterial communities (IBC) in mouse bladders, confocal microscopy; type: in vivo, C3H/HeN mice
Procedure: The experiment was performed using the procedures described in Justice, S. et al., Differentiation and development pathways of uropathogenic Escherichia coli in urinary tract pathogenesis.PNAS, 2004, 101(5), p. 1333-1338. Briefly, E. coli UTI89[pCOMGFP] was prepared after retrieval from frozen stocks by inoculating in LB medium statically for approximately 20 hours. Cells were harvested and suspended in 1 ml of PBS. Cells were diluted to achieve approximately a 10^8 CFU or 10^7 CFU input into C3H/HeN mice (2 mice per group).
Mice were deprived of water for approximately two hours. In experiment 1, all mice were anesthetized with 0.15 cc ketamine cocktail. In experiment 2, all mice were anesthetized with isofluorane. In experiment 1, urine was dispelled from the bladders and approximately 40 μg/ml of test compound or an appropriate amount of ethanol as control was introduced into the bladders via catheterization of the urethra using a tubing coated tuberculin syringe. 30 minutes was allowed to elapse. In experiment 2, bladders were not pre-incubated with test compounds. Bladders were then expelled and an inoculum of 10^8 CFU (Experiment 1) or 10^7 CFU (Experiment 2) of E. coli containing 40 μg/ml of test compound or equivalent amount of ethanol as controls were introduced into the bladders as indicated above.
In experiment 1 five hours elapsed and in experiment 2 six hours elapsed, and then mice were anesthetized and sacrificed. The bladders were removed, bisected, stretched, and fixed in 3% paraformaldehyde for 1 hour at room temperature. Bladders were then permeabilized in 0.01% Triton/PBS for 10 minutes and counter stained with TOPRO3 (Molecular Probes) for 10 minutes for visualization by confocal microscopy. Bladders were mounted on Prolong antifade (Molecular Probes).

C[C@H]1[C@H](C)CC[C@]2(C(=O)O)CC[C@]3(C)C(=CC[C@@H]4[C@@]5(C)C[C@@H](O)[C@H](O)[C@@](C)(CO)[C@@H]5CC[C@]43C)[C@H]12 [Asiatic acid, asiatic acid]
inhibition at 5 µg/mL ([1]; JM 109, 5 ug/ml): ~70%
inhibition at 10 µg/mL ([1]; JM 109, 10 ug/ml): ~80%
Test Compound, log10 CFU ([2]; test compound 50 μg/ml 24 h): 7.7 log10 CFU
Tobramycin and Test Compound, log10 CFU ([2]; test compound 50 μg/ml 24 h): 5.3 log10 CFU
Test Compound, log10 CFU ([2]; test compound 100 μg/ml 24 h): 7.7 log10 CFU
Tobramycin and Test Compound, log10 CFU ([2]; test compound 100 μg/ml 24 h): 5.5 log10 CFU
Test Compound, log10 CFU ([2]; test compound 200 μg/ml 24 h): 7.5 log10 CFU
Tobramycin and Test Compound, log10 CFU ([2]; test compound 200 μg/ml 24 h): 5.2 log10 CFU
inhibition at 40 µg/mL (S. mutans 25175): > 75%
reduction in biofilm pods or intracellular bacterial communities (IBC) in the bladders of mice as compared to the controls (E. coli UTI89[pCOMGFP]; experiment 1: 40 μg/ml intravesical, 30 min pre-incubation, 10^8 CFU, five hours): 77%
reduction in large biofilm pods or large IBC in the bladders of mice as compared to the controls (E. coli UTI89[pCOMGFP]; experiment 2: 40 μg/ml with inoculum, no pre-incubation, 10^7 CFU, six hours): ~60%
